Patent publication US20220313621A1, “FORMULATIONS OF CANNABINOIDS FOR THE TREATMENT OF PSORIASIS” (priority 2017, published 2022)

Experiments:
[1] = Discoloration of CBD solutions; type: physicochemical; conditions: end of day 1
From the text: The CBD2 material dissolved like the CBD1 therefore the CBD2 is CBD without the discoloration properties of CBD1.

[2] = in ethanol; cited from earlier work
rats = conditions: 5 mg/kg, i.v., once daily for 4 weeks; cited from earlier work
sensitized guinea-pigs = conditions: 1 mg/kg i.v.; cited from earlier work
anandamide = conditions: rat basophilic leukemia cells; cited from earlier work
[3] = Solubility of CBD in the Receptor Fluid; type: physicochemical; conditions: not told, aqueous with cosolvent or surfactant or cyclodextrin; PBS with 0.01 wt % NaN3, 4 wt % hydroxypropyl-cyclodextrin, 1 wt % Brij O20
[4] = Solubility of CBD in solvents and excipients; type: physicochemical
Protocol: First, the solubility of cannabidiol (CBD) was assessed. The powder looked granulated under the microscope. […] The conclusions from the solubility studies were that OA and IPA were very good solvents and it was surprising that IPA was so much better than ethanol.
Solubility studies: CBD dissolved at the 10% level in AE and barely 9.5% in IPM. Further exploration was not conducted due to the small amount of drug API available for non-GMP work. CBD is soluble greater than 10% but probably not in excess of 20%, as the time to dissolve additional CBD was taking considerably longer.

[5] = biological target: T1, human vanilloid receptor type 1 (VR1) (Homo sapiens, UniProt Q8NER1); conditions: HEK-hVR1 transfected cells; cited from earlier work
T1 construct: expressed in transfected cells; host or cells: HEK cells transfected with hVR1 (HEK-hVR1)
T1 sequence (Q8NER1 whole entry): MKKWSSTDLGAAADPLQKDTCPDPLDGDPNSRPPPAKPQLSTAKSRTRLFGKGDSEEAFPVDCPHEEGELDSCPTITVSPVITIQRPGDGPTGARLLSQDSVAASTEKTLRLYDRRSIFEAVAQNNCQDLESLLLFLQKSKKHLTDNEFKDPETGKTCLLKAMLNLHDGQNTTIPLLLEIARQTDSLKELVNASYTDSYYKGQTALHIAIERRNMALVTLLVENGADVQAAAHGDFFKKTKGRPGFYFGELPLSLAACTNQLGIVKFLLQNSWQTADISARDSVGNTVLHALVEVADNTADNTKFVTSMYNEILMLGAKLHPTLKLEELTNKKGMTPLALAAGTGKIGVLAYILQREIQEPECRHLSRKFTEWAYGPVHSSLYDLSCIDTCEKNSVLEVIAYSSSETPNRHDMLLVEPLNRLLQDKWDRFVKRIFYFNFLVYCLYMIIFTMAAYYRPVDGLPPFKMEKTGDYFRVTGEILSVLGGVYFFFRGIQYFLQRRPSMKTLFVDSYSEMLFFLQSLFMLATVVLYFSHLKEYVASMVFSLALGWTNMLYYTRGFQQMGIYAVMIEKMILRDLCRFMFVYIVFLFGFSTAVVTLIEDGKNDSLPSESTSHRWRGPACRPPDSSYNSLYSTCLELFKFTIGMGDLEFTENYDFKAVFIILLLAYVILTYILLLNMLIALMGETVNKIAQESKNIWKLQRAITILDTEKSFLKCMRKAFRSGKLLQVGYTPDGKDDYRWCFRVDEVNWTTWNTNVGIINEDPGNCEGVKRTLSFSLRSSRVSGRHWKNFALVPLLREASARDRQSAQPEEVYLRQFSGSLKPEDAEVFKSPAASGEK

Compound	discoloration of solution [1]	reported solubility [2] [%]	cardiac inflammation produced by doxorubicin (rats)	ovalbumin-induced airway obstruction (sensitized guinea-pigs)	inhibition of anandamide (anandamide)	solubility [3] [µg/mL]	solubility (weight to weight) ([4]; in ethanol)	solubility (weight to weight) ([4]; in hexamethyldisiloxane (HDS))	solubility (weight to weight) ([4]; in isopropyl alcohol (IPA))	solubility ([4]; in isopropyl myristate (IPM)) [%]	solubility (weight to weight) ([4]; in mineral oil)	solubility (weight to weight) ([4]; in oleyl alcohol (OA))	solubility (weight to weight) ([4]; in propylene glycol (PG))	stimulation of human vanilloid receptor type 1 (VR1) [5]
C=C(C)[C@@H]1CCC(C)=C[C@H]1c1c(O)cc(CCCCC)cc1O [CBD2]	None of the CBD2 solutions were coloured at the end of day 1	–	–	–	–	–	–	–	–	–	–	–	–	–
C=C(C)C1CCC(C)=CC1c1c(O)cc(CCCCC)cc1O (stereo not drawn) [CBD, 2-[3-methyl-6-(1-methylethenyl)-2-cyclohexen-1-yl]-5-pentyl-1,3-benzenediol]	–	3.5	attenuated cardiac inflammation produced by doxorubicin	attenuated ovalbumin-induced airway obstruction	inhibit anandamide	> 50	6-7%	3-4%	greater than 14%	~9.5	3-4%	greater than 8%	6-7%	maximum effect similar in efficacy to that of capsaicin
C=C(C)[C@@H]1CCC(C)=C[C@H]1c1c(O)cc(CCCCC)cc1O [CBD1]	coloured by the end of the day	–	–	–	–	–	–	–	–	–	–	–	–	–
